No end group written: not given here.

The assay addresses T1, human TAS1R2-I191V/TAS1R3-WT (Homo sapiens, UniProt Q7RTX0+Q8TE23, I191V).
T1 construct: expressed in transfected cells; host or cells: HEK293T-Gα16gust44
T1 sequence (Q8TE23 20-839 I191V): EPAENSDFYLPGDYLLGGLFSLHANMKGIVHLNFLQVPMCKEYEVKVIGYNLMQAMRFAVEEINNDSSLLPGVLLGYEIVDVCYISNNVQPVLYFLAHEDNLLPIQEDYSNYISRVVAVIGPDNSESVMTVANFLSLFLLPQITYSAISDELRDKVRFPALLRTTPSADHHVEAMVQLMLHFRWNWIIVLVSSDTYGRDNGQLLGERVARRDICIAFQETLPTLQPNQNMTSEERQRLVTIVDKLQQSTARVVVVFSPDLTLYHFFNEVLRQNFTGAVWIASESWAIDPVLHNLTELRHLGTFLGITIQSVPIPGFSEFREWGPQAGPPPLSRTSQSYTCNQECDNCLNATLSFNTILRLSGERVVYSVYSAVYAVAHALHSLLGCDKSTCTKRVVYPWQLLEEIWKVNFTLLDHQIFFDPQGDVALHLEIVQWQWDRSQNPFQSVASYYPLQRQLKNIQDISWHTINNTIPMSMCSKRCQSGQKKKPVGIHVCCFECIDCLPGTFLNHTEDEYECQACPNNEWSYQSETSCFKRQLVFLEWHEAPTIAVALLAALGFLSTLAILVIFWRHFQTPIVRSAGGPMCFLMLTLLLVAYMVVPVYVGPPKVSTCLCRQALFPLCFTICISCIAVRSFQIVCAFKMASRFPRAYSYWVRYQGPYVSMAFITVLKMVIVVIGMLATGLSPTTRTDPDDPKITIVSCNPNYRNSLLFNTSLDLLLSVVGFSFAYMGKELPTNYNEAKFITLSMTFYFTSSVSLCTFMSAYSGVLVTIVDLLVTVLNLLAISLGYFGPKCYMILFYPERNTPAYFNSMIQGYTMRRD
T1 sequence (Q7RTX0 21-852): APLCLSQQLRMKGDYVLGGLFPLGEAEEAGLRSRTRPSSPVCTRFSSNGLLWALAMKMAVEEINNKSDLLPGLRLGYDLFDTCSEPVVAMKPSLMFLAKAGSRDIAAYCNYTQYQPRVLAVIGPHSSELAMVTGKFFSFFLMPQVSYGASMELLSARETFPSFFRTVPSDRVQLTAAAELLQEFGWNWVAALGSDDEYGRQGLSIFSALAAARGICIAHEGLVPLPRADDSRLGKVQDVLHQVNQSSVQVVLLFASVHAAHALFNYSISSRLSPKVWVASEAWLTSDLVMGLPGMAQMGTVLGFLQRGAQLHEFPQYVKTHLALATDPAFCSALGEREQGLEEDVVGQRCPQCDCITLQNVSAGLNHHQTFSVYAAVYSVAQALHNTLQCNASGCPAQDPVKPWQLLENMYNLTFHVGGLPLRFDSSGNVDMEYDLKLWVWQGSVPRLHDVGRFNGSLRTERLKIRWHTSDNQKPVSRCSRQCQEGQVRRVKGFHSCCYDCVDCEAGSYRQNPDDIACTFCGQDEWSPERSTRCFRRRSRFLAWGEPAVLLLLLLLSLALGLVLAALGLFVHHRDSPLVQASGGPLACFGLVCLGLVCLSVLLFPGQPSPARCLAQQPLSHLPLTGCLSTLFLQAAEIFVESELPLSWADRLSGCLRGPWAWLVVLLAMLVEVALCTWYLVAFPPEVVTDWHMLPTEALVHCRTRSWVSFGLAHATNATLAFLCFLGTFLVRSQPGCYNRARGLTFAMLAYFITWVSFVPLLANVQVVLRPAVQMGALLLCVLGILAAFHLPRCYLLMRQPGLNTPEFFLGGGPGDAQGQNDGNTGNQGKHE
As to the kind of experiment: Calcium mobilisation assay, TAS1R2 variant I191V with TAS1R3-WT. It counts as cell-based. To be noted: for Max ΔF/F0: maximal signal amplitude. From the text: The coding sequences for TAS1R2 and TAS1R3 were commercially synthesised, and the human codon was optimised for expression in human cells. The coding sequences of human TAS1R2 and TAS1R3 were subcloned and inserted into the mammalian expression vectors pcDNA6/myc-HisA and pcDNA4/myc-HisA (Invitrogen; Thermo Fisher Scientific; Illkirch, France) between the EcoRI and NotI restriction sites, generating the plasmids pcDNA6-TAS1R2 and pcDNA4-TAS1R3, respectively. To increase protein expression in mammalian cells, an upstream start codon was used, which was a sequence called MAX, corresponding to the QBI SP163 element also described in pcDNA4-HisMax (Invitrogen; Thermo Fisher Scientific; Illkirch, France). To measure the expression level of the receptor by immunohistochemistry, we used the FLAG sequence ([…]) in the C-terminal position, which encodes the FLAG tag epitope. SNP variants of TAS1R2 and TAS1R3 were constructed based on […], respectively, using site-directed mutagenesis (Genewiz; Leipzig, Germany).
The HEK293T cells were kindly provided by Jay P. Slack (Givaudan Flavors Corporation; Cincinnati, OH, USA). HEK293T cells stably transfected with Gα16gust44 [43, 67] were seeded in poly-D-lysine-coated clear-bottom black 96-well plates (0.35 × 10^5 cells/well) in high-glucose DMEM supplemented with 2 mM GlutaMAX, 10% dialysed foetal bovine serum with penicillin/streptomycin and G418 (400 μg/mL) at 37 °C and 6.3% CO2 in a humidified atmosphere as previously reported. […] As a negative control, HEK293T cells were mock-transfected with the empty expression vector. After a further 24 h of incubation, the HEK293T cells were washed with C1 buffer (130 mM NaCl, 5 mM KCl, 10 mM HEPES pH 7.4 and 2 mM CaCl2). The 96-well plates containing the cells were then stimulated with sweet-tasting compounds. […] Different concentration ranges were tested depending on the sweet compound injected. The Ca^2+ changes were expressed as fractional changes in fluorescent light intensity: ΔF/F = (F − F0)/F0, where F was the fluorescent light intensity at each point, and F0 was the value of emitted fluorescent light prior to stimulus application. To calculate dose–response relationships, the changes in fluorescence upon stimulus application were averaged, mock-subtracted and baseline-corrected. The dose–response data obtained were adjusted using a 4-parameter logistic equation. The half-maximal effective concentrations (EC50 values) and maximal signal amplitudes were calculated using SigmaPlot software (version 15.0) (Systat Software; San Jose, CA, USA).
For in vitro calcium mobilisation assay performed on hTAS1R2-SNPs, hTAS1R3-SNPs and mTAS1R3-I60T, 6 to 7 concentrations were tested for each sweet compound, plus buffer alone. All concentration–receptor combinations were measured in duplicate, and each experiment was repeated at least 4 times (8 wells/concentration). Results were expressed for each concentration as ΔF/F mean ± SEM and represented as dose–response curves.
Background: Calcium assays in cells follow changes in intracellular calcium, usually with a dye or a luminescent sensor.

Broadly, the EC50 is the midpoint of the concentration-response curve. As for `OC[C@H]1O[C@H](O[C@]2(CCl)O[C@H](CCl)[C@@H](O)[C@@H]2O)[C@H](O)[C@@H](O)[C@H]1Cl` [Sucralose], the EC50 amounted to 87 ± 7 µM, the “R1 = Variant EC50/WT EC50” value was 1.0 and the “Max ΔF/F0” value is recorded as 0.52 ± 0.02.

As for `C[C@H](CC[C@@H](O[C@@H]1O[C@H](CO[C@@H]2O[C@H](CO)[C@@H](O)[C@H](O)[C@H]2O)[C@@H](O)[C@H](O)[C@H]1O[C@@H]1O[C@H](CO)[C@@H](O)[C@H](O)[C@H]1O)C(C)(C)O)[C@H]1CC[C@@]2(C)[C@@H]3CC=C4[C@@H](CC[C@H](O[C@@H]5O[C@H](CO[C@@H]6O[C@H](CO)[C@@H](O)[C@H](O)[C@H]6O)[C@@H](O)[C@H](O)[C@H]5O)C4(C)C)[C@]3(C)[C@H](O)C[C@]12C` [Mogroside V, mogroside V], the EC50 is 19.2 ± 1.7 µM, the “R1 = Variant EC50/WT EC50” value worked out at 1.1 and the “Max ΔF/F0” value came out at 1.33 ± 0.04.

On to `COC(=O)[C@H](Cc1ccccc1)NC(=O)[C@H](CC(=O)O)NCCC(C)(C)C` [Neotame], for which the EC50 is 0.84 ± 0.08 µM, the “R1 = Variant EC50/WT EC50” value is listed as 1.0 and the “Max ΔF/F0” value amounted to 0.64 ± 0.02.

“brazzein (QDKCKKVYENYPVSKCQLANQCNYDCKLDKHARSGECFYDEKRNLQCICDYCEY; ends and bridges not checked; cysteine pairing not given here; UniProt P56552 1-54, looked up) [sweet-tasting protein obtained by recombinant production using the yeast Pichia pastoris]”: the “R1 = Variant EC50/WT EC50” value came out at 1.7 and the “Max ΔF/F0” value turned out to be 1.12 ± 0.02.

Turning to `C=C(C)[C@@H]1CC=C(/C=N/O)CC1` [Perillartine, perillartine], the EC50 was 27.9 ± 0.5 µM, the “R1 = Variant EC50/WT EC50” value is on record as 1.6 and the “Max ΔF/F0” value came out at 1.27 ± 0.01.

On to `CC1=CC(=O)NS(=O)(=O)O1` [Acesulfame K, acesulfame K], for which the EC50 was determined as 492 ± 30 µM, the “R1 = Variant EC50/WT EC50” value is recorded as 0.7 and the “Max ΔF/F0” value turned out to be 0.27 ± 0.01.

As for `C=C1C[C@@]23CC[C@H]4[C@@](C)(CCC[C@@]4(C)C(=O)O[C@@H]4O[C@H](CO)[C@@H](O)[C@H](O[C@@H]5O[C@H](CO)[C@@H](O)[C@H](O)[C@H]5O)[C@H]4O[C@@H]4O[C@H](CO)[C@@H](O)[C@H](O)[C@H]4O)[C@@H]2CC[C@]1(O[C@@H]1O[C@H](CO)[C@@H](O)[C@H](O[C@@H]2O[C@H](CO)[C@@H](O)[C@H](O)[C@H]2O)[C@H]1O[C@@H]1O[C@H](CO)[C@@H](O)[C@H](O)[C@H]1O)C3` [Rebaudioside M, rebaudioside M], the EC50 came to 21 ± 0.4 µM, the “R1 = Variant EC50/WT EC50” value stood at 1.2 and the “Max ΔF/F0” value came to 1.10 ± 0.01.

For the molecule `O=S(=O)(O)NC1CCCCC1` [Cyclamate, cyclamate], the concentration giving a half-maximal response (EC50) was found to be 2020 ± 31 µM.

For `COc1ccc(CCC(=O)c2c(O)cc(O[C@@H]3O[C@H](CO)[C@@H](O)[C@H](O)[C@H]3O[C@@H]3O[C@@H](C)[C@H](O)[C@@H](O)[C@H]3O)cc2O)cc1O` [NHDC, neohesperidin dihydrochalcone], the EC50 came out at 109 ± 4.6 µM, the “R1 = Variant EC50/WT EC50” value was 1.4 and the “Max ΔF/F0” value worked out at 0.73 ± 0.01.

Turning to thaumatin, the “R1 = Variant EC50/WT EC50” value amounted to 1.0 and the “Max ΔF/F0” value is reported as 0.34 ± 0.02.

B1: thaumatin (protein)
chain: ATFEIVNRCSYTVWAAASKGDAALDAGGRQLNSGESWTINVEPGTKGGKIWARTDCYFDDSGSGICKTGDCGGLLRCKRFGRPPTTLAEFSLNQYGKDYIDISNIKGFNVPMDFSPTTRGCRGVRCAADIVGQCPAKLKAPGGGCNDACTVFQTSEYCCTTGKCGPTEYSRFFKRLCPDAFSYVLDKPTTVTCPGSSNYRVTFCPTA
modifications: Eight disulfides
notes: sweet-tasting plant protein, E957
B1: the EC50 came to 7.7 ± 0.9 µM.

Source of the values: PMC11945486, “TAS1R2/TAS1R3 Single-Nucleotide Polymorphisms Affect Sweet Taste Receptor Activation by Sweeteners: The SWEET Project” (Nutrients, 2025).
